Assay results reported in ChEMBL document CHEMBL1212763, “Pharmacokinetics and safety of S/GSK1349572, a next-generation HIV integrase inhibitor, in healthy volunteers” (Antimicrob Agents Chemother, 2010).

Tests used:
[1] = Drug level at 24 hrs in healthy human at 10 mg administered as single dose suspension; format: ADME, organism-based; conditions: in vivo, read-out: Drug uptake
Homo sapiens [2] = experiment: Toxicity in healthy human assessed as incidence of drug related incidence of headache at 25 mg, qd for 10 days administered as suspension measured after last dose coadministered with 3 mg CYP3A4 probe midazolam; format: organism-based; conditions: in vivo, 240 h
[3] = Cmax in healthy human at 100 mg administered as single dose suspension; format: ADME, organism-based; design: dose 100 mg; conditions: in vivo
[4] = AUC (0-tau) in healthy human at 10 mg, qd for 10 days administered as suspension measured after last dose; format: ADME, organism-based; conditions: plasma
[5] = Half life in healthy human at 5 mg administered as single dose suspension; format: ADME, organism-based; conditions: in vivo
[6] = Drug level at 24 hrs in healthy human at 100 mg administered as single dose suspension; format: ADME, organism-based; conditions: in vivo, read-out: Drug uptake
Homo sapiens [7] = experiment: Toxicity in healthy human assessed as incidence of adverse events at 10 to 50 mg, qd for 10 days administered as suspension measured after last dose; format: organism-based; conditions: in vivo, 240 h
[8] = AUC (0-tau) in healthy human at 50 mg, qd for 10 days administered as suspension measured after last dose; format: ADME, organism-based; conditions: plasma
[9] = Tmax in healthy human at 100 mg administered as single dose suspension; format: ADME, organism-based; conditions: in vivo
Homo sapiens [10] = experiment: Toxicity in healthy human assessed as incidence of drug related incidence of somnolence at 25 mg administered as single dose suspension; format: organism-based; conditions: in vivo
[11] = Tmax in healthy human at 50 mg administered as single dose suspension; format: ADME, organism-based; conditions: in vivo
[12] = Drug level at 24 hrs in healthy human at 5 mg administered as single dose suspension; format: ADME, organism-based; conditions: in vivo, read-out: Drug uptake
[13] = Tmax in healthy human at 2 mg administered as single dose suspension; format: ADME, organism-based; conditions: in vivo
[14] = AUC (0-infinity) in healthy human at 10 mg administered as single dose suspension; format: ADME, organism-based; design: dose 10 mg, time infinity; conditions: plasma
[15] = Apparent oral clearance in healthy human at 100 mg administered as single dose suspension; format: ADME, organism-based; conditions: in vivo
[16] = AUC (0-tau) in healthy human at 25 mg, qd for 10 days administered as suspension measured after last dose; format: ADME, organism-based; conditions: plasma
[17] = Cmax in healthy human at 2 mg administered as single dose suspension; format: ADME, organism-based; design: dose 2 mg; conditions: in vivo
[18] = Tmax in healthy human at 10 mg, qd for 10 days administered as suspension measured after last dose; format: ADME, organism-based; conditions: in vivo
[19] = Apparent oral clearance in healthy human at 5 mg administered as single dose suspension; format: ADME, organism-based; conditions: in vivo
[20] = Half life in healthy human at 2 mg administered as single dose suspension; format: ADME, organism-based; conditions: in vivo
Homo sapiens [21] = experiment: Toxicity in healthy human assessed as incidence of drug related incidence of headache at 50 mg, qd for 10 days administered as suspension measured after last dose; format: organism-based; conditions: in vivo, 240 h
Homo sapiens [22] = experiment: Toxicity in healthy human assessed as incidence of drug related incidence of somnolence at 50 mg administered as single dose suspension; format: organism-based; conditions: in vivo
Homo sapiens [23] = experiment: Toxicity in healthy human assessed as incidence of drug related incidence of pruritis at 25 mg, qd for 10 days administered as suspension measured after last dose coadministered with 3 mg CYP3A4 probe midazolam; format: organism-based; conditions: in vivo, 240 h
[24] = AUC (0-infinity) in healthy human at 50 mg administered as single dose suspension; format: ADME, organism-based; design: dose 50 mg, time infinity; conditions: plasma
Homo sapiens [25] = experiment: Toxicity in healthy human assessed as incidence of adverse events at 2 to 100 mg administered as single dose suspension; format: organism-based; conditions: in vivo
[26] = Half life in healthy human at 100 mg administered as single dose suspension; format: ADME, organism-based; conditions: in vivo
[27] = Drug level at 24 hrs in healthy human at 25 mg administered as single dose suspension; format: ADME, organism-based; conditions: in vivo, read-out: Drug uptake
[28] = AUC (0-infinity) in healthy human at 25 mg administered as single dose suspension; format: ADME, organism-based; design: dose 25 mg, time infinity; conditions: plasma
[29] = Cmax in healthy human at 10 mg, qd for 10 days administered as suspension measured after last dose; format: ADME, organism-based; design: dose 10 mg; conditions: in vivo
[30] = Cmax in healthy human at 5 mg administered as single dose suspension; format: ADME, organism-based; design: dose 5 mg; conditions: in vivo
Homo sapiens [31] = experiment: Toxicity in healthy human assessed as incidence of drug related incidence of pharyngolaryngeal pain at 50 mg, qd for 10 days administered as suspension measured after last dose; format: organism-based; conditions: in vivo, 240 h
Homo sapiens [32] = experiment: Toxicity in healthy human assessed as incidence of drug related incidence of headache at 25 mg, qd for 10 days administered as suspension measured after last dose; format: organism-based; conditions: in vivo, 240 h
[33] = AUC (0-infinity) in healthy human at 100 mg administered as single dose suspension; format: ADME, organism-based; design: dose 100 mg, time infinity; conditions: plasma
[34] = Apparent oral clearance in healthy human at 25 mg administered as single dose suspension; format: ADME, organism-based; conditions: in vivo
[35] = Cmax in healthy human at 50 mg administered as single dose suspension; format: ADME, organism-based; design: dose 50 mg; conditions: in vivo
[36] = Tmax in healthy human at 5 mg administered as single dose suspension; format: ADME, organism-based; conditions: in vivo
[37] = Drug level in healthy human at 25 mg, qd for 10 days administered as suspension measured after last dose; format: ADME, organism-based; conditions: in vivo, read-out: Drug uptake
Homo sapiens [38] = experiment: Toxicity in healthy human assessed as incidence of drug related incidence of somnolence at 100 mg administered as single dose suspension; format: organism-based; conditions: in vivo

C[C@@H]1CCO[C@H]2Cn3cc(C(=O)NCc4ccc(F)cc4F)c(=O)c([O-])c3C(=O)N12.[Na+] [DOLUTEGRAVIR SODIUM]
concentration at 24 h [1]: 196 ng/mL | Activity (Homo sapiens [2]): 0% | Cmax [3]: 8140 ng/mL | AUC tau at 240 h [4]: 16700 ng·h/mL | half-life [5]: 14.3 h | concentration at 24 h [6]: 1800 ng/mL | Activity (Homo sapiens [7]): Non-toxic | AUC tau at 240 h [8]: 76800 ng·h/mL | Tmax [9]: 1 h | Activity (Homo sapiens [10]): 0% | Tmax [11]: 1.25 h | concentration at 24 h [12]: 126 ng/mL | Tmax [13]: 0.63 h | AUC(0-inf) [14]: 14600 ng·h/mL | CL/F [15]: 12.3 mL/min | AUC tau at 240 h [16]: 38400 ng·h/mL | Cmax [17]: 231 ng/mL | Tmax [18]: 0.5 h | CL/F [19]: 9.33 mL/min | half-life [20]: 12.7 h | Activity (Homo sapiens [21]): 22% | Activity (Homo sapiens [22]): 33% | Activity (Homo sapiens [23]): 0% | AUC(0-inf) [24]: 73200 ng·h/mL | Activity (Homo sapiens [25]): Non-toxic | half-life [26]: 14.7 h | concentration at 24 h [27]: 469 ng/mL | AUC(0-inf) [28]: 35100 ng·h/mL | Cmax [29]: 1470 ng/mL | Cmax [30]: 661 ng/mL | Activity (Homo sapiens [31]): 11% | Activity (Homo sapiens [32]): 0% | AUC(0-inf) [33]: 136000 ng·h/mL | CL/F [34]: 11.8 mL/min | Cmax [35]: 4560 ng/mL | Tmax [36]: 0.5 h | concentration at 240 h [37]: 840 ng/mL | Activity (Homo sapiens [38]): 0%
